Test results published in PubChem BioAssay (NCI).
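The compound was tested at five concentrations on cells cultured in 96-well plates, with a 48-hour exposure period. GI50 is the concentration that inhibits growth by half. Definition used: TGI = concentration required for complete inhibition of growth.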

Tests used:
Experiment in all cases: NCI anticancer screen, dose series, 48 h
[1] = system: IGROV1 ovarian
[2] = system: SF-539 CNS
[3] = system: NCI-H226 lung
[4] = system: OVCAR-4 ovarian
[5] = system: 786-0 renal
[6] = system: LOX IMVI melanoma
[7] = system: MOLT-4 leukemia
[8] = system: ACHN renal
[9] = system: SK-OV-3 ovarian
[10] = system: SN12C renal
[11] = system: OVCAR-5 ovarian
[12] = system: NCI-H522 lung
[13] = system: RXF 393 renal
[14] = system: HCT-116 colon
[15] = system: SF-268 CNS
[16] = system: HOP-92 NSCLC
[17] = system: NCI/ADR-RES ovarian
[18] = system: SNB-19 CNS
[19] = system: T-47D breast
[20] = system: A549 NSCLC
[21] = system: HOP-62 NSCLC
[22] = system: OVCAR-8 ovarian
[23] = system: SW-620 colon
[24] = system: MDA-MB-231 breast
[25] = system: SR leukemia
[26] = system: UACC-62 melanoma
[27] = system: MALME-3M melanoma

Cc1ccc2cc3c(cc(C)c4ccccc43)c3c2c1CC3
GI50 [1]: > 100 µM
TGI [1]: > 100 µM
GI50 [2]: > 100 µM
TGI [2]: > 100 µM
GI50 [3]: > 100 µM
TGI [3]: > 100 µM
GI50 [4]: > 100 µM
TGI [4]: > 100 µM
GI50 [5]: > 100 µM
TGI [5]: > 100 µM
GI50 [6]: > 100 µM
TGI [6]: > 100 µM
GI50 [7]: > 100 µM
TGI [7]: > 100 µM
GI50 [8]: 60.1 µM
TGI [8]: > 100 µM
GI50 [9]: > 100 µM
TGI [9]: > 100 µM
GI50 [10]: > 100 µM
TGI [10]: > 100 µM
GI50 [11]: > 100 µM
TGI [11]: > 100 µM
GI50 [12]: > 100 µM
TGI [12]: > 100 µM
GI50 [13]: 57.2 µM
TGI [13]: > 100 µM
GI50 [14]: > 100 µM
TGI [14]: > 100 µM
GI50 [15]: > 100 µM
TGI [15]: > 100 µM
GI50 [16]: 17.4 µM
TGI [16]: 82.3 µM
GI50 [17]: > 100 µM
TGI [17]: > 100 µM
GI50 [18]: > 100 µM
TGI [18]: > 100 µM
GI50 [19]: > 100 µM
TGI [19]: > 100 µM
GI50 [20]: > 100 µM
TGI [20]: > 100 µM
GI50 [21]: 58.8 µM
TGI [21]: > 100 µM
GI50 [22]: > 100 µM
TGI [22]: > 100 µM
GI50 [23]: > 100 µM
TGI [23]: > 100 µM
GI50 [24]: 48.2 µM
TGI [24]: > 100 µM
GI50 [25]: 87.5 µM
TGI [25]: > 100 µM
GI50 [26]: > 100 µM
TGI [26]: > 100 µM
GI50 [27]: > 100 µM
